Entries after “also recorded” stand apart in the source; their conditions may differ.
Tests used:
[1] = test system: parental and IKKα KO MIA PaCa-2 tumors; assay: Heterotopic s.c. xenografts in nude mice; type: in vivo, mouse
Experimental: To evaluate the effects of MP on tumor growth in the autochthonous model, Kras^G12D;Ikkα^Δpan mice, at 4 weeks of age, were treated with vehicle or 10 mg/kg EIPA (Sigma) by intraperitoneal injection every other day for 1 month. After that, surgically removed pancreata were weighed and used for further analysis. To evaluate the effects of MP on heterotopic xenografts, female homozygous BALB/c Nu/Nu nude mice were injected subcutaneously (s.c.) in both flanks at 7 weeks of age with 10^6 parental and IKKα KO MIA PaCa-2 cells mixed at a 1:1 dilution with BD Matrigel (BD Biosciences) in a total volume of 100 μl. Mice were treated with EIPA (7.5 mg/kg) for 15 days when tumors attained an average volume of 50-100 mm^3. As a control, animals treated with vehicle (DMSO in PBS) were used. Volumes (1/2×(width^2×length)) of s.c. tumors were calculated on the basis of measurements using digital calipers after 15 days of treatment. […] Tumor volumes were calculated as above.
In some embodiments, to evaluate the effects of MP on tumor growth or survival in the autochthonous model, Kras^G12D;Ikkα^ΔPEC mice, at 4 weeks of age, were treated with vehicle or 10 mg/kg EIPA (Sigma) by i.p. injection every other day for 1 month. […] Volumes (1/2×(width^2×length)) of s.c. tumors were calculated on the basis of measurements using digital calipers after 15 days of treatment. […] Tumor volumes were calculated as above.

Kras^G12D;Ikkα^ΔPEC mice = assay: Autochthonous PDAC model; type: in vivo, mouse
Experimental: To evaluate the effects of MP on tumor growth in the autochthonous model, Kras^G12D;Ikkα^Δpan mice, at 4 weeks of age, were treated with vehicle or 10 mg/kg EIPA (Sigma) by intraperitoneal injection every other day for 1 month. After that, surgically removed pancreata were weighed and used for further analysis. To evaluate the effects of MP on heterotopic xenografts, female homozygous BALB/c Nu/Nu nude mice were injected subcutaneously (s.c.) in both flanks at 7 weeks of age with 10^6 parental and IKKα KO MIA PaCa-2 cells mixed at a 1:1 dilution with BD Matrigel (BD Biosciences) in a total volume of 100 μl. Mice were treated with EIPA (7.5 mg/kg) for 15 days when tumors attained an average volume of 50-100 mm^3. As a control, animals treated with vehicle (DMSO in PBS) were used. Volumes (1/2×(width^2×length)) of s.c. tumors were calculated on the basis of measurements using digital calipers after 15 days of treatment. To evaluate the combination effects of autophagy and MP inhibition on tumor growth, C57BL/6 mice were injected s.c. at 7 weeks of age with 10^7 KC6141 cells in a total volume of 100 μl. Mice were treated with vehicle, EIPA (7.5 mg/kg), MRT68921 (10 mg/kg, MCE), or EIPA and MRT68921 for 21 days when tumors attained an average volume of 100 mm^3. Tumor volumes were calculated as above.
In some embodiments, to evaluate the effects of MP on tumor growth or survival in the autochthonous model, Kras^G12D;Ikkα^ΔPEC mice, at 4 weeks of age, were treated with vehicle or 10 mg/kg EIPA (Sigma) by i.p. injection every other day for 1 month. After that, surgically removed pancreata were weighed and used for further analysis and other mice were continued to maintain for survival. To evaluate the effects of MP on heterotopic xenografts, female homozygous BALB/c Nu/Nu nude mice were injected subcutaneously (s.c.) in both flanks at 7 weeks of age with 10^6 parental and IKKα^Δ MIA PaCa-2 cells or 1334 and 1444 cells mixed at a 1:1 dilution with BD Matrigel (BD Biosciences) in a total volume of 100 μl. Mice were treated with vehicle (DMSO in PBS), EIPA (7.5 mg/kg), MRT68921 (10 mg/kg) or MRT68921 and EIPA for 15 days when tumors attained an average volume of 50-100 mm^3. Volumes (1/2×(width^2×length)) of s.c. tumors were calculated on the basis of measurements using digital calipers after 15 days of treatment. To evaluate the combination effects of autophagy and MP inhibition on tumor growth, C57BL/6 mice were injected s.c. at 7 weeks of age with 10^6 parental, Ikkα KD, Nhe1 KD or Ikkα+Nhe1 DKD KC6141 cells in a total volume of 100 μl. Mice were treated with or without vehicle, EIPA (7.5 mg/kg), MRT68921 (10 mg/kg), or EIPA and MRT68921 for 21 days when tumors attained an average volume of 50-100 mm^3. Tumor volumes were calculated as above.
Cell imaging. Immunostaining was performed as described^44. Cells were cultured on coverslips and fixed in 4% PFA for 10 min at room temperature. After washing twice in PBS, cells were incubated in PBS containing 10% FBS to block nonspecific sites of antibody adsorption. The cells were then incubated with the appropriate primary antibodies (diluted 1:100) and secondary antibodies (diluted 1:500) in PBS containing 10% FBS with or without 0.1% saponin. For cell macropinosome visualization, 24 hrs after seeding, the cells were serum starved for 18 hrs. Macropinosomes were marked using a high-molecular-mass (70 KD) TMR-Dextran (Invitrogen)-uptake assay, wherein TMR-DEX was added to serum-free medium at a final concentration of 1 mg/ml for 30 min at 37° C. At the end of the incubation period, the cells were rinsed five times in cold PBS and immediately fixed in 4% PFA. For tissue macropinosome visualization^45, fresh pancreata were cut into pieces with an approximate 5-mm cuboidal shape. A tissue section was placed in a 24-well plate and injected 150 μL of 10 mg/ml TMR-DEX solution directly into the tissue piece. Another 250 μL of diluted TMR-DEX solution were added to the well to immerse the tissue section. […]

[2] = 10 mg/kg EIPA for 1 month vs vehicle

CCN(c1nc(N)c(C(=O)N=C(N)N)nc1Cl)C(C)C [EIPA, 5-(N-ethyl-N-isopropyl) amiloride]
growth of IKKα-deficient tumors / their EIPA sensitivity vs parental ([1]; IKKα KO (IKKα^Δ) MIA PaCa-2 tumors, EIPA 7.5 mg/kg for 15 days): strongly inhibited; also recorded: more EIPA sensitive
tumor size ([1]; parental and IKKα KO MIA PaCa-2 tumors, EIPA 7.5 mg/kg for 15 days vs vehicle): reduced tumor size in both groups; also recorded: significantly suppressed
residual cancer tissue (histological analysis) (Kras^G12D;Ikkα^ΔPEC mice; 10 mg/kg EIPA for 1 month): very little residual cancer tissue; also recorded: little residual cancer tissue
IHC: acinar cell loss (amylase up, CK19 and SOX9 down) (Kras^G12D;Ikkα^ΔPEC mice; [2]): prevented acinar cell loss
MP in TMR-DEX injected pancreata (Kras^G12D;Ikkα^ΔPEC mice; [2]): decreased MP
histology (H&E): ADM, advanced PanIN formation, normal parenchyma (Kras^G12D;Ikkα^ΔPEC mice; [2]): inhibited acinar-to-ductal metaplasia (ADM) and advanced pancreatic intraepithelial neoplasia (PanIN) formation, and preserved the normal pancreatic parenchyma
pancreatic weight (a measure of tumor growth) (Kras^G12D;Ikkα^ΔPEC mice; 10 mg/kg EIPA i.p. every other day for 1 month, from 1 month of age, vs vehicle): markedly reduced; also recorded: significantly reduced
survival (Kaplan-Meier) (Kras^G12D;Ikkα^ΔPEC mice; 10 mg/kg EIPA vs vehicle, n=12): substantially extended; also recorded: enhanced the percent survival rate
